In BigSolDB 2.1:

CC(=O)c1c(C)c2cnc(Nc3ccc(N4CCNCC4)cn3)nc2n(C2CCCC2)c1=O
solubility (mole fraction) (in DMF, 293.15 K): 6.17e-05 | solubility (mole fraction) (in DMF, 298.15 K): 8.25e-05 | solubility (mole fraction) (in DMF, 303.15 K): 0.000103 | solubility (mole fraction) (in DMF, 308.15 K): 0.000131 | solubility (mole fraction) (in DMF, 313.15 K): 0.000166 | solubility (mole fraction) (in DMF, 318.15 K): 0.000202 | solubility (mole fraction) (in DMF, 323.15 K): 0.000246 | solubility (mole fraction) (in DMF, 328.15 K): 0.000293 | solubility (mole fraction) (in DMF, 333.15 K): 0.000351 | solubility (mole fraction) (in DMSO, 293.15 K): 6.57e-05 | solubility (mole fraction) (in DMSO, 298.15 K): 7.82e-05 | solubility (mole fraction) (in DMSO, 303.15 K): 9.62e-05 | solubility (mole fraction) (in DMSO, 308.15 K): 0.00012 | solubility (mole fraction) (in DMSO, 313.15 K): 0.000146 | solubility (mole fraction) (in DMSO, 318.15 K): 0.000172 | solubility (mole fraction) (in DMSO, 323.15 K): 0.000198 | solubility (mole fraction) (in DMSO, 328.15 K): 0.000246 | solubility (mole fraction) (in DMSO, 333.15 K): 0.000302 | solubility (mole fraction) (in THF, 293.15 K): 7.14e-05 | solubility (mole fraction) (in THF, 298.15 K): 9.81e-05 | solubility (mole fraction) (in THF, 303.15 K): 0.000143 | solubility (mole fraction) (in THF, 308.15 K): 0.000189 | solubility (mole fraction) (in THF, 313.15 K): 0.00025 | solubility (mole fraction) (in THF, 318.15 K): 0.000329 | solubility (mole fraction) (in THF, 323.15 K): 0.000417 | solubility (mole fraction) (in THF, 328.15 K): 0.000536 | solubility (mole fraction) (in THF, 333.15 K): 0.000696 | solubility (mole fraction) (in acetone, 293.15 K): 5.73e-05 | solubility (mole fraction) (in acetone, 298.15 K): 7.32e-05 | solubility (mole fraction) (in acetone, 303.15 K): 9.12e-05 | solubility (mole fraction) (in acetone, 308.15 K): 0.000111 | solubility (mole fraction) (in acetone, 313.15 K): 0.000138 | solubility (mole fraction) (in acetone, 318.15 K): 0.000165 | solubility (mole fraction) (in acetone, 323.15 K): 0.000199 | solubility (mole fraction) (in acetone, 328.15 K): 0.000238 | solubility (mole fraction) (in acetone, 333.15 K): 0.000278 | solubility (mole fraction) (in anisole, 293.15 K): 1.32e-05 | solubility (mole fraction) (in anisole, 298.15 K): 1.41e-05 | solubility (mole fraction) (in anisole, 303.15 K): 1.51e-05 | solubility (mole fraction) (in anisole, 308.15 K): 1.67e-05 | solubility (mole fraction) (in anisole, 313.15 K): 1.79e-05 | solubility (mole fraction) (in anisole, 318.15 K): 1.87e-05 | solubility (mole fraction) (in anisole, 323.15 K): 1.98e-05 | solubility (mole fraction) (in anisole, 328.15 K): 2.02e-05 | solubility (mole fraction) (in anisole, 333.15 K): 2.17e-05 | solubility (mole fraction) (in chlorobenzene, 293.15 K): 3.96e-05 | solubility (mole fraction) (in chlorobenzene, 298.15 K): 5.28e-05 | solubility (mole fraction) (in chlorobenzene, 303.15 K): 6.9e-05 | solubility (mole fraction) (in chlorobenzene, 308.15 K): 8.91e-05 | solubility (mole fraction) (in chlorobenzene, 313.15 K): 0.000116 | solubility (mole fraction) (in chlorobenzene, 318.15 K): 0.000148 | solubility (mole fraction) (in chlorobenzene, 323.15 K): 0.000189 | solubility (mole fraction) (in chlorobenzene, 328.15 K): 0.000239 | solubility (mole fraction) (in chlorobenzene, 333.15 K): 0.000302 | solubility (mole fraction) (in ethanol, 293.15 K): 2.11e-05 | solubility (mole fraction) (in ethanol, 298.15 K): 2.66e-05 | solubility (mole fraction) (in ethanol, 303.15 K): 3.03e-05 | solubility (mole fraction) (in ethanol, 308.15 K): 3.61e-05 | solubility (mole fraction) (in ethanol, 313.15 K): 4.12e-05 | solubility (mole fraction) (in ethanol, 318.15 K): 4.81e-05 | solubility (mole fraction) (in ethanol, 323.15 K): 5.6e-05 | solubility (mole fraction) (in ethanol, 328.15 K): 6.41e-05 | solubility (mole fraction) (in ethanol, 333.15 K): 7.27e-05 | solubility (mole fraction) (in ethyl acetate, 293.15 K): 1.44e-05 | solubility (mole fraction) (in ethyl acetate, 298.15 K): 1.6e-05 | solubility (mole fraction) (in ethyl acetate, 303.15 K): 2.06e-05 | solubility (mole fraction) (in ethyl acetate, 308.15 K): 2.4e-05 | solubility (mole fraction) (in ethyl acetate, 313.15 K): 3.08e-05 | solubility (mole fraction) (in ethyl acetate, 318.15 K): 3.63e-05 | solubility (mole fraction) (in ethyl acetate, 323.15 K): 4.42e-05 | solubility (mole fraction) (in ethyl acetate, 328.15 K): 5.13e-05 | solubility (mole fraction) (in ethyl acetate, 333.15 K): 5.98e-05 | solubility (mole fraction) (in m-xylene, 293.15 K): 3.74e-05 | solubility (mole fraction) (in m-xylene, 298.15 K): 4.12e-05 | solubility (mole fraction) (in m-xylene, 303.15 K): 5.23e-05 | solubility (mole fraction) (in m-xylene, 308.15 K): 6.44e-05 | solubility (mole fraction) (in m-xylene, 313.15 K): 8.24e-05 | solubility (mole fraction) (in m-xylene, 318.15 K): 9.8e-05 | solubility (mole fraction) (in m-xylene, 323.15 K): 0.000119 | solubility (mole fraction) (in m-xylene, 328.15 K): 0.000147 | solubility (mole fraction) (in m-xylene, 333.15 K): 0.000171 | solubility (mole fraction) (in methanol, 293.15 K): 1.1e-05 | solubility (mole fraction) (in methanol, 298.15 K): 1.43e-05 | solubility (mole fraction) (in methanol, 303.15 K): 1.97e-05 | solubility (mole fraction) (in methanol, 308.15 K): 2.54e-05 | solubility (mole fraction) (in methanol, 313.15 K): 3.43e-05 | solubility (mole fraction) (in methanol, 318.15 K): 4.52e-05 | solubility (mole fraction) (in methanol, 323.15 K): 5.71e-05 | solubility (mole fraction) (in methanol, 328.15 K): 7.15e-05 | solubility (mole fraction) (in methanol, 333.15 K): 9.01e-05 | solubility (mole fraction) (in o-xylene, 293.15 K): 3.21e-05 | solubility (mole fraction) (in o-xylene, 298.15 K): 3.62e-05 | solubility (mole fraction) (in o-xylene, 303.15 K): 4.29e-05 | solubility (mole fraction) (in o-xylene, 308.15 K): 4.88e-05 | solubility (mole fraction) (in o-xylene, 313.15 K): 5.57e-05 | solubility (mole fraction) (in o-xylene, 318.15 K): 6.38e-05 | solubility (mole fraction) (in o-xylene, 323.15 K): 7.18e-05 | solubility (mole fraction) (in o-xylene, 328.15 K): 8.16e-05 | solubility (mole fraction) (in o-xylene, 333.15 K): 9.67e-05 | solubility (mole fraction) (in pyridine, 293.15 K): 9.37e-05 | solubility (mole fraction) (in pyridine, 298.15 K): 0.000111 | solubility (mole fraction) (in pyridine, 303.15 K): 0.000127 | solubility (mole fraction) (in pyridine, 308.15 K): 0.000142 | solubility (mole fraction) (in pyridine, 313.15 K): 0.000159 | solubility (mole fraction) (in pyridine, 318.15 K): 0.000177 | solubility (mole fraction) (in pyridine, 323.15 K): 0.000196 | solubility (mole fraction) (in pyridine, 328.15 K): 0.000215 | solubility (mole fraction) (in pyridine, 333.15 K): 0.000236 | solubility (mole fraction) (in toluene, 293.15 K): 4.72e-05 | solubility (mole fraction) (in toluene, 298.15 K): 5.67e-05 | solubility (mole fraction) (in toluene, 303.15 K): 6.78e-05 | solubility (mole fraction) (in toluene, 308.15 K): 8.01e-05 | solubility (mole fraction) (in toluene, 313.15 K): 9.44e-05 | solubility (mole fraction) (in toluene, 318.15 K): 0.00011 | solubility (mole fraction) (in toluene, 323.15 K): 0.000129 | solubility (mole fraction) (in toluene, 328.15 K): 0.000152 | solubility (mole fraction) (in toluene, 333.15 K): 0.000178 | solubility (mole fraction) (in water, 293.15 K): 9.4e-06 | solubility (mole fraction) (in water, 298.15 K): 1.18e-05 | solubility (mole fraction) (in water, 303.15 K): 1.35e-05 | solubility (mole fraction) (in water, 308.15 K): 1.7e-05 | solubility (mole fraction) (in water, 313.15 K): 2.11e-05 | solubility (mole fraction) (in water, 318.15 K): 2.52e-05 | solubility (mole fraction) (in water, 323.15 K): 3.01e-05 | solubility (mole fraction) (in water, 328.15 K): 3.63e-05 | solubility (mole fraction) (in water, 333.15 K): 4.34e-05
